pEC50: −log10 of the molar value.
Columns and labels:
[1] = system: Human immunodeficiency virus 1; assay: Antiviral activity was tested in absence of human serum in MT-4 cells (in vitro); format: functional, organism-based; conditions: Human immunodeficiency virus 1, MT4
[2] = system: Human immunodeficiency virus 1; assay: Antiviral activity was tested in presence of 50% human serum in MT-4 cells (in vitro); format: functional, organism-based; conditions: Human immunodeficiency virus 1, MT4
[3] = target: Human immunodeficiency virus type 1 protease (Human immunodeficiency virus 1) (UniProt Q72874); assay: Inhibitory activity against HIV protease at a compound concentration of 0.5 nM in MT-4 cells; format: cell-based; conditions: MT4
[4] = target: Human immunodeficiency virus type 1 protease (Human immunodeficiency virus 1) (UniProt Q72874); assay: Inhibitory activity against HIV protease at a compound concentration of 12 nM in MT-4 cells; format: cell-based; conditions: MT4
[5] = target: Human immunodeficiency virus type 1 protease (Human immunodeficiency virus 1) (UniProt Q72874); assay: Inhibitory activity against HIV protease at a compound concentration of 31 nM in MT-4 cells; format: cell-based; conditions: MT4
[6] = target: Human immunodeficiency virus type 1 protease (Human immunodeficiency virus 1) (UniProt Q72874); assay: Inhibitory activity against HIV protease at a compound concentration of 1 nM in MT-4 cells; format: cell-based; conditions: MT4
[7] = target: Human immunodeficiency virus type 1 protease (Human immunodeficiency virus 1) (UniProt Q72874); assay: Inhibitory activity against HIV protease at a compound concentration of 2.4 nM in MT-4 cells; format: cell-based; conditions: MT4

Structure (SMILES) | pEC50 [1] | pEC50 [2] | inhibition [3] [%] | inhibition [4] [%] | inhibition [5] [%] | inhibition [6] [%] | inhibition [7] [%]
COc1cccc(C)c1OCC(=O)N[C@@H](Cc1ccccc1)C[C@H](O)[C@H](Cc1ccccc1)NC(=O)O[C@H]1COC2OCCC21 (stereo not given in full) | 6.45 | 5.86 | 74 |  |  |  | 
Cc1cc(N(C)C)cc(C)c1OCC(=O)N[C@@H](Cc1ccccc1)C[C@H](O)[C@H](Cc1ccccc1)NC(=O)O[C@H]1COC2OCCC21 (stereo not given in full) | 6.80 | 5.68 | 43 |  |  |  | 
CNC(=O)c1cc(C)c(OCC(=O)N[C@@H](Cc2ccccc2)C[C@H](O)[C@H](Cc2ccccc2)NC(=O)O[C@H]2COC3OCCC32)c(C)c1 (stereo not given in full) | 6.66 | 6.27 |  |  |  |  | 
Cc1cccc(CO)c1OCC(=O)N[C@@H](Cc1ccccc1)C[C@H](O)[C@H](Cc1ccccc1)NC(=O)O[C@H]1COC2OCCC21 (stereo not given in full) | 7.43 | 6.71 | 88 |  |  |  | 
O=C(COc1ccccc1)N[C@@H](Cc1ccccc1)C[C@H](O)[C@H](Cc1ccccc1)NC(=O)O[C@H]1COC2OCCC21 (stereo not given in full) |  |  | 61 |  |  |  | 
Cc1cc([N+](=O)[O-])cc(C)c1OCC(=O)N[C@@H](Cc1ccccc1)C[C@H](O)[C@H](Cc1ccccc1)NC(=O)OC1COC2OCCC12 (stereo not given in full) | 6.03 | 5.09 | 53 |  |  |  | 
Cc1cc(NS(C)(=O)=O)cc(C)c1OCC(=O)N[C@@H](Cc1ccccc1)[C@@H](O)C[C@H](Cc1ccccc1)NC(=O)O[C@H]1COC2OCCC21 (stereo not given in full) |  |  |  | 50 |  |  | 
Cc1cccc(C)c1NCC(=O)N[C@@H](Cc1ccccc1)C[C@H](O)[C@H](Cc1ccccc1)NC(=O)O[C@H]1COC2OCCC21 (stereo not given in full) | 6.60 | 5.67 | 69 |  |  |  | 
Cc1cc(N2COCC2=O)cc(C)c1OCC(=O)N[C@@H](Cc1ccccc1)C[C@H](O)[C@H](Cc1ccccc1)NC(=O)O[C@H]1COC2OCCC21 (stereo not given in full) | 6.67 | 6.03 | 74 |  |  |  | 
Cc1cc(N)cc(C)c1S(=O)(=O)CC(=O)N[C@@H](Cc1ccccc1)C[C@H](O)[C@H](Cc1ccccc1)NC(=O)O[C@H]1COC2OCCC21 (stereo not given in full) | 4.99 | 4.21 |  | 50 |  |  | 
Cc1cc(N)cc(C)c1[S+]([O-])CC(=O)N[C@@H](Cc1ccccc1)C[C@H](O)[C@H](Cc1ccccc1)NC(=O)O[C@H]1COC2OCCC21 (stereo not given in full) | 4.43 | 4.01 |  |  | 50 |  | 
Cc1cccc(C)c1OCC(=O)N[C@@H](Cc1ccccc1)[C@@H](O)C[C@H](Cc1ccccc1)NC(=O)OC1COC2OCCC12 (stereo not given in full) | 7.21 | 6.57 | 91 |  |  |  | 
Cc1cc(N)cc(C)c1SCC(=O)N[C@@H](Cc1ccccc1)C[C@H](O)[C@H](Cc1ccccc1)NC(=O)O[C@H]1COC2OCCC21 (stereo not given in full) | 5.24 | 5.98 |  |  |  | 56 | 
Cc1cc(C(=O)N(C)C)cc(C)c1OCC(=O)N[C@@H](Cc1ccccc1)C[C@H](O)[C@H](Cc1ccccc1)NC(=O)O[C@H]1COC2OCCC21 (stereo not given in full) | 5.64 | 4.92 |  |  |  |  | 
CCOC(=O)c1cc(C)c(OCC(=O)N[C@@H](Cc2ccccc2)C[C@H](O)[C@H](Cc2ccccc2)NC(=O)O[C@H]2COC3OCCC32)c(C)c1 (stereo not given in full) | 6.97 | 5.49 | 84 |  |  |  | 
Cc1cc(OCCN2CCOCC2)cc(C)c1OCC(=O)N[C@@H](Cc1ccccc1)C[C@H](O)[C@H](Cc1ccccc1)NC(=O)O[C@H]1COC2OCCC21 (stereo not given in full) | 7.62 | 6.47 | 77 |  |  |  | 
Cc1cccc(C)c1N(C)CC(=O)N[C@@H](Cc1ccccc1)C[C@H](O)[C@H](Cc1ccccc1)NC(=O)O[C@H]1COC2OCCC21 (stereo not given in full) | 5.54 | 4.52 |  |  |  |  | 50
Cc1ccccc1OCC(=O)N[C@@H](Cc1ccccc1)C[C@H](O)[C@H](Cc1ccccc1)NC(=O)O[C@H]1COC2OCCC21 (stereo not given in full) |  |  | 84 |  |  |  | 

The remaining lines, values ahead:

pEC50 [1] | pEC50 [2] | inhibition [3] [%] | inhibition [4] [%] | inhibition [5] [%] | inhibition [6] [%] | inhibition [7] [%] | Structure (SMILES)
6.80 | 6.30 | 61 |  |  |  |  | Cc1cc2oc(O)nc2c(C)c1OCC(=O)N[C@@H](Cc1ccccc1)C[C@H](O)[C@H](Cc1ccccc1)NC(=O)O[C@H]1COC2OCCC21 (stereo not given in full)
7.21 | 6.18 | 86 |  |  |  |  | Cc1cc(Cl)c(N)c(C)c1OCC(=O)N[C@@H](Cc1ccccc1)C[C@H](O)[C@H](Cc1ccccc1)NC(=O)O[C@H]1COC2OCCC21 (stereo not given in full)
7.39 | 6.52 | 87 |  |  |  |  | Cc1cccc(C)c1OCC(=O)N[C@@H](Cc1ccccc1)C[C@H](O)[C@H](Cc1ccccc1)NC(=O)O[C@H]1COC2OCCC21 (stereo not given in full)
6.74 | 6.36 | 49 |  |  |  |  | Cc1ccnc(C)c1OCC(=O)N[C@@H](Cc1ccccc1)C[C@H](O)[C@H](Cc1ccccc1)NC(=O)O[C@H]1COC2OCCC21 (stereo not given in full)
6.01 | 5.51 | 85 |  |  |  |  | Cc1cc2[nH]c(O)nc2c(C)c1OCC(=O)N[C@@H](Cc1ccccc1)C[C@H](O)[C@H](Cc1ccccc1)NC(=O)O[C@H]1COC2OCCC21 (stereo not given in full)
6.57 | 6.06 | 69 |  |  |  |  | Cc1cc(F)cc(C)c1OCC(=O)N[C@@H](Cc1ccccc1)C[C@H](O)[C@H](Cc1ccccc1)NC(=O)O[C@H]1COC2OCCC21 (stereo not given in full)
6.21 | 5.25 | 71 |  |  |  |  | Cc1cc2nsnc2c(C)c1OCC(=O)N[C@@H](Cc1ccccc1)C[C@H](O)[C@H](Cc1ccccc1)NC(=O)O[C@H]1COC2OCCC21 (stereo not given in full)
7.49 | 7.12 | 82 |  |  |  |  | Cc1cc(O)cc(C)c1OCC(=O)N[C@@H](Cc1ccccc1)C[C@H](O)[C@H](Cc1ccccc1)NC(=O)O[C@H]1COC2OCCC21 (stereo not given in full)
6.73 | 5.73 | 67 |  |  |  |  | Cc1cc2[nH]nnc2c(C)c1OCC(=O)N[C@@H](Cc1ccccc1)C[C@H](O)[C@H](Cc1ccccc1)NC(=O)O[C@H]1COC2OCCC21 (stereo not given in full)
7.64 | 6.93 | 74 |  |  |  |  | Cc1cc(C)c(OCC(=O)N[C@@H](Cc2ccccc2)C[C@H](O)[C@H](Cc2ccccc2)NC(=O)O[C@H]2COC3OCCC32)c(C)c1N (stereo not given in full)
7.33 | 6.89 | 60 |  |  |  |  | Cc1cc(N)cc(C)c1OCC(=O)N[C@@H](Cc1ccccc1)C[C@H](O)[C@H](Cc1ccccc1)NC(=O)O[C@@H]1COC2OCCC21 (stereo not given in full)
6.19 | 5.83 | 76 |  |  |  |  | Cc1cc(N)c(N)c(C)c1OCC(=O)N[C@@H](Cc1ccccc1)C[C@H](O)[C@H](Cc1ccccc1)NC(=O)O[C@H]1COC2OCCC21 (stereo not given in full)
6.09 | 5.86 | 56 |  |  |  |  | Cc1ncnc(C)c1OCC(=O)N[C@@H](Cc1ccccc1)C[C@H](O)[C@H](Cc1ccccc1)NC(=O)O[C@H]1COC2OCCC21 (stereo not given in full)
7.92 | 7.17 | 70 |  |  |  |  | Cc1cc(N)cc(C)c1OCC(=O)N[C@@H](Cc1ccccc1)C[C@H](O)[C@H](Cc1ccccc1)NC(=O)OC1COC2OCCC12 (stereo not given in full)
6.95 | 6.29 | 64 |  |  |  |  | CNc1cc(C)c(OCC(=O)N[C@@H](Cc2ccccc2)C[C@H](O)[C@H](Cc2ccccc2)NC(=O)OC2COC3OCCC23)c(C)c1 (stereo not given in full)
8.30 | 7.46 | 87 |  |  |  |  | Cc1ccc(N)c(C)c1OCC(=O)N[C@@H](Cc1ccccc1)C[C@H](O)[C@H](Cc1ccccc1)NC(=O)O[C@H]1COC2OCCC21 (stereo not given in full)
8.05 | 7.51 | 78 |  |  |  |  | Cc1cc(N)cc(C)c1OCC(=O)N[C@@H](Cc1ccccc1)C[C@H](O)[C@H](Cc1ccccc1)NC(=O)O[C@H]1COC2OCCC21 (stereo not given in full)
6.59 | 6.01 |  |  |  |  |  | Cc1cc(C(N)=O)cc(C)c1OCC(=O)N[C@@H](Cc1ccccc1)C[C@H](O)[C@H](Cc1ccccc1)NC(=O)O[C@H]1COC2OCCC21 (stereo not given in full)
8.15 | 7.01 | 92 |  |  |  |  | Cc1ccc(O)c(C)c1OCC(=O)N[C@@H](Cc1ccccc1)C[C@H](O)[C@H](Cc1ccccc1)NC(=O)O[C@H]1COC2OCCC21 (stereo not given in full)
6.69 | 6.32 | 82 |  |  |  |  | Cc1cc(C)c(OCC(=O)N[C@@H](Cc2ccccc2)C[C@H](O)[C@H](Cc2ccccc2)NC(=O)O[C@H]2COC3OCCC32)c(C)c1 (stereo not given in full)
